Measurements: US8557998B2, “Benzylpiperizine compound” (Dainippon Sumitomo Pharma Co., Ltd, priority 2008, dated 2013)
pIC50, pKi: −log10 of the molar value.

What was measured:
[1] = biological target: T1, human serotonin transporter (h-SERT) (Homo sapiens, UniProt P31645); test: Screening test using [3H]citalopram binding for evaluating human serotonin reuptake inhibitory effect; conditions: h-SERT/CHO membrane preparation, [3H]citalopram approximately 2 nM, room temperature 60 minutes; read-out: Test Example 1: h-SERT binding inhibition constant (Ki)
T1 construct: expressed in transfected cells; host or cells: CHO cells (h-SERT/CHO), Geneticin-selected
T1 sequence (P31645 whole entry): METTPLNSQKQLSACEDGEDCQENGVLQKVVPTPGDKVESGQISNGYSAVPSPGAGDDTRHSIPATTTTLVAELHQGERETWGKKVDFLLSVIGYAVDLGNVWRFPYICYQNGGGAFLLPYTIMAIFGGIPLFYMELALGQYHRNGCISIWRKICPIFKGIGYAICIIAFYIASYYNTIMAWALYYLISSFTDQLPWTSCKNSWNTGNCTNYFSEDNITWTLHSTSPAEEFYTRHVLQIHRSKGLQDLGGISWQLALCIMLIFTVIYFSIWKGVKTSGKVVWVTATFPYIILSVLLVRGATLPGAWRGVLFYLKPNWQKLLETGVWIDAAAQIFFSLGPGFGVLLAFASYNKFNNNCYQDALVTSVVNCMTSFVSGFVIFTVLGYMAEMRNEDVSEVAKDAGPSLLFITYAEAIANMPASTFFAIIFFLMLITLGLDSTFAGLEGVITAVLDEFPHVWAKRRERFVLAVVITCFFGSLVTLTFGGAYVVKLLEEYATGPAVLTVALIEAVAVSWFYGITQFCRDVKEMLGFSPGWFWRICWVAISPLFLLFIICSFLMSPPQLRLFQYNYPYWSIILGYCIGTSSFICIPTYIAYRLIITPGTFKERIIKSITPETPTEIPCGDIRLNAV
From the text: CHO cells containing a human serotonin transporter (h-SERT) expressed therein (h-SERT/CHO) were used in the experiment.
1-2 Receptor Binding Experiment
A smaller value of the h-SERT binding inhibition constant Ki means a higher human serotonin reuptake inhibitory effect.

[2] = biological target: T2, CYP2D6 (Homo sapiens, UniProt P10635); test: Screening test of the rate of CYP2D6 contribution in human liver microsomal metabolism; assay type: in vitro ADME; parameters: key to Rate of CYP2D6 Contribution indeterminable due to high stability for human microsomal metabolism: —*^): The rate of CYP2D6 contribution was indeterminable in the present test due to high stability for human microsomal metabolism; conditions: 1 mg/mL human liver microsomes, 1 μM test substance, 37° C.
T2 construct: Pooled of Human Liver Microsomes was purchased from Xenotech, LLC; tissue Xenotech, LLC; host or cells: pooled human liver microsomes
T2 sequence (P10635 whole entry): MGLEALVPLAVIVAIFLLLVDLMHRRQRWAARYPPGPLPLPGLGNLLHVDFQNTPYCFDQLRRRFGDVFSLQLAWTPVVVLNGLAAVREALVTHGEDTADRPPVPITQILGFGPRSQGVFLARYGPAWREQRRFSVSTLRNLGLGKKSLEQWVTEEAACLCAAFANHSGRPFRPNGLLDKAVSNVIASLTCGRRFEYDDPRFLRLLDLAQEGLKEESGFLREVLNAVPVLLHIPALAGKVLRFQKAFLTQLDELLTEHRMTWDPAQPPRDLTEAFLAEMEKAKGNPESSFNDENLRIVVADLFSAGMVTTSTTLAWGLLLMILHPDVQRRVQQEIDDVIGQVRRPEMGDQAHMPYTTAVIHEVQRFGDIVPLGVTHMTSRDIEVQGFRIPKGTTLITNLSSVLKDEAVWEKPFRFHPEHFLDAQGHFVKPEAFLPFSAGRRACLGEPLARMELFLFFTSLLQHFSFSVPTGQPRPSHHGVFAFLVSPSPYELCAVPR
Procedure: Screening Test of the Rate of CYP2D6 Contribution in Human Liver Microsomal Metabolism
0.2 mL of a 50 mM potassium phosphate buffer solution (pH 7.4) containing NADPH (final concentration: 3 mM, manufactured by Oriental Yeast Co., Ltd.), 1 mg/mL human liver microsomes (manufactured by XENOTECH, LLC), and a 1 μM test substance was heated on a water bath at 37° C. for metabolic reaction. After the reaction for 15 minutes or 30 minutes, methanol was added in a volume 3 times that of the reaction solution, and the mixture was stirred to terminate the reaction. This reaction solution was centrifuged for protein precipitation. Then, the supernatant was collected and subjected to LC-MS/MS analysis. The results were analyzed as follows:
The test substance was quantified, and time-dependent change in the amount of the substance remaining was logarithmically plotted. A metabolic rate was calculated from the slope.
The ratio of the metabolic rate obtained by the addition of quinidine (final concentration: 4 μM) to the reaction solution to the metabolic rate obtained without the addition was used as the rate of contribution of enzymes other than CYP2D6, and the rate of contribution obtained by subtracting this rate of contribution of other enzymes from the total was used as the rate of CYP2D6 contribution. Specifically, it was calculated according to the equation: Rate of contribution(%)={1−(metabolic rate [with quinidine]/metabolic rate[without quinidine])}×100. A smaller value of the rate of CYP2D6 contribution means smaller CYP2D6 contribution.

[3] = biological target: T3, human serotonin 1A receptor (h-5-HT1A) (Homo sapiens, UniProt P08908)
T3 sequence (P08908 1-422): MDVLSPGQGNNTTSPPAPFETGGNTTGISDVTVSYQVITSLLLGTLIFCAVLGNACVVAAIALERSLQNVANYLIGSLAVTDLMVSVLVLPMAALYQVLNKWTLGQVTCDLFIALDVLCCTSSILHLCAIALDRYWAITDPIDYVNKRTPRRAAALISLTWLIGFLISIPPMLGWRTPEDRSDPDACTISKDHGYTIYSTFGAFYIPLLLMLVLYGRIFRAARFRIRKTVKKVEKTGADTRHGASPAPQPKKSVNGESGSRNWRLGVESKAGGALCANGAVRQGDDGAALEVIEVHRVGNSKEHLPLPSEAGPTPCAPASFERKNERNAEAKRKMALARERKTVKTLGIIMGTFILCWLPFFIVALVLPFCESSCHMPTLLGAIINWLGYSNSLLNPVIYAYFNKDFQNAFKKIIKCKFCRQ
Procedure: The cells were cultured in F12 containing 10% FCS, 500 μg/ml Geneticin, and 100 U/ml penicillin-100 μg/ml streptomycin (all manufactured by Sigma-Aldrich Corp.) in a 5% CO2 incubator. […] Specifically, the cells were dissociated/collected using 50 mM Tris-HCl (pH=7.4). The resulting cells were homogenized using a Teflon (registered trademark) homogenizer and then centrifuged (48,000×g, 20 min, 4° C.). The pellet was resuspended in an appropriate amount of 50 mM Tris-HCl (pH=7.4) and stored at −80° C. until use. The amount of the protein in the membrane preparation was quantified using Dye Reagent Concentrate (manufactured by Bio-Rad Laboratories, Inc.) with bovine serum albumin (manufactured by Sigma-Aldrich Corp.) as a standard.
The reaction solution was reacted at room temperature for 30 minutes and then rapidly filtered by suction at a low pressure through glass fiber filter paper. The glass fiber filter paper was washed twice with 250 μl of 50 mM Tris-HCl (pH=7.4) and then added to a counting vial containing 4 ml of ACS-II (manufactured by Amersham Biosciences). Receptor binding radioactivity remaining on the filter paper was measured using a liquid scintillation counter.

[4] = biological target: T1, human serotonin transporter (h-SERT); test: Serotonin transporter function inhibition test using [3H]5-HT; assay type: cell-based; conditions: h-SERT/CHO cells, [3H]5-HT uptake approximately 10 nM, 37° C. 10 minutes; read-out: Test Example 5: h-SERT Function Inhibition Constant (Ki)
Procedure: 1-1 Cells Used and Preparation of Cell Suspension
CHO cells containing a human serotonin transporter (h-SERT) expressed therein (h-SERT/CHO) were used in the experiment. […] The collected cells were suspended in a buffer solution containing 0.1 mM CaCl2 and 1 mM MgCl2 in PBS (hereinafter, referred to as PBSCM) and stored in ice until use.
Specifically, 149 μl of the cell suspension (10×10^4 cells/well) and 1 μl of a solution of a test drug dissolved in dimethyl sulfoxide were preincubated at 37° C. for 10 minutes.

[5] = biological target: T2, CYP2D6; test: CYP2D6 inhibition screening test; assay type: in vitro ADME; conditions: pooled human liver microsomes, substrate bufuralol, 37° C. 10 min, 1'-hydroxybufuralol by LC-MSMS; read-out: Test Example 3: CYP2D6 Inhibition IC50
Procedure: CYP2D6 Inhibition Screening Test
Bufuralol was purchased from Sigma-Aldrich Corp., and Pooled of Human Liver Microsomes was purchased from Xenotech, LLC.
150 μL of Pooled Human Liver Microsomes (20 mg/ml), 12 mL of a 0.5 M potassium phosphate buffer, 1.2 mL of a 165 mM magnesium chloride solution, and 34.65 mL of distilled water were mixed.
Bufuralol was dissolved at a concentration of 2.0 mM in DMSO and then diluted 200-fold with distilled water.
3-3 Experimental Procedures
1. A 10 mM DMSO solution of a test drug was serially diluted 5-fold with DMSO for 4 serial dilutions to prepare 10, 2, 0.4, and 0.08 mM DMSO solutions.
2. Each test drug solution of the step 1. and DMSO were separately diluted 96-fold with a human liver microsome solution, and each dilution was dispensed and 80 μL of each dilution to microplates.
3. 10 μL of a substrate solution and 10 μL of a β-NADPH solution were added to the well of the step 2., followed by incubation at 37° C. for 10 min.
4. The reaction was terminated by the addition of 300 μL of methanol.
5. The reaction mixture was filtered, and LC-MSMS analysis was conducted.
3-4 Quantification and Calculation
The amount of 1′-hydroxybufuralol produced was quantified by LC-MSMS, and this amount was used as a metabolic activity of CYP2D6 for each well. The remaining activity of each sample was determined by comparison with the activity obtained from DMSO as a test drug. An IC50 value of CYP2D6 inhibition was determined from the test drug concentration and remaining activity. The IC50 value was calculated by linear interpolation between two points that span the remaining activity 50%. A larger value of IC50 of CYP2D6 inhibition means weaker CYP2D6 inhibition.

`O=C1CCOc2ccc(CCN3CCC(Cc4ccc(Br)c(OCCO)c4)CC3)cc21` [Example 13, 6-(2-{4-[4-Bromo-3-(2-hydroxyethoxy)benzyl]piperidin-1-yl}ethyl)-2,3-dihydro-4H-chromen-4-one] was tested, and the pKi [1] was 8.13, the “Rate of CYP2D6 Contribution indeterminable due to high stability for human microsomal metabolism” value [2] was “—*^)” and the pKi [3] was 8.07. The pKi [4] was 7.29 and the pIC50 [5] was 4.57.
